Among the test systems are SK-MEL-28; DU-145; SR; HOP-92; SK-OV-3; SK-MEL-2; UO-31; OVCAR-3; SF-268; HOP-62; SK-MEL-5; MDA-N; LOX IMVI; CCRF-CEM; Malme-3M; A498; CAKI-1; ACHN; M14; A549.
Experiment in all cases: NCI anticancer screen, dose series, 48 h

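Exposure lasted 48 hours, with cells grown in 96-well plates and compounds tested at five concentrations. GI50 = concentration required for 50% inhibition of growth.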 Activity calls are given as the source filed them. Cut-off read from the data, not from the text of the source: active = GI50 up to about 1.1 µM and inactive = higher.

Take `S=C(NCc1ccccc1)N/N=C/c1ccccn1`: the GI50 in the experiment on SK-MEL-28 is 5.62 µM (inactive); with DU-145 it was 3.08 µM (inactive); in the experiment on SR, 0.29 µM (active); with HOP-92 it was 2.21 µM (inactive); in the experiment on SK-OV-3 it was 3.94 µM (inactive); with SK-MEL-2, 14.1 µM (inactive). Moreover, the GI50 in the experiment with UO-31 was 1.25 µM (inactive); in the experiment on OVCAR-3 it was 0.222 µM (active); in the experiment with SF-268, 1.42 µM (inactive); in the experiment with HOP-62 it was 3.7 µM (inactive); in the experiment with SK-MEL-5, 3.52 µM (inactive); in the experiment with MDA-N, 8.53 µM (inactive). The GI50 was 1.53 µM (inactive) with LOX IMVI; < 0.0409 µM (active) in the experiment on CCRF-CEM; 1.45 µM (inactive) with Malme-3M; 3.87 µM (inactive) in the experiment on A498; 0.335 µM (active) with CAKI-1; 1.27 µM (inactive) in the experiment with ACHN. Also, the results for the GI50 with M14 and with A549 were 0.5 µM (active) and 4.29 µM (inactive), respectively.
Regarding `O=C1NC(=O)C(c2c[nH]c3cc(Br)ccc23)=C1c1cnc[nH]1`, the GI50 in the experiment with SK-MEL-28 is 62.1 µM (inactive); with DU-145, 60.5 µM (inactive); in the experiment with SR, 31.3 µM (inactive); in the experiment with HOP-92, > 100 µM (inactive); in the experiment on SK-OV-3, 13.1 µM (inactive); in the experiment on SK-MEL-2, 22.9 µM (inactive). Further, the GI50 with UO-31 is 17.7 µM (inactive); with OVCAR-3, 12.3 µM (inactive); in the experiment on SF-268, 29.5 µM (inactive); in the experiment with HOP-62, 19.1 µM (inactive); in the experiment on SK-MEL-5 it was 11 µM (inactive); in the experiment on MDA-N it was 35.5 µM (inactive). Moreover, the GI50 in the experiment with LOX IMVI was 19.5 µM (inactive); with CCRF-CEM, 34.8 µM (inactive); in the experiment with Malme-3M, > 100 µM (inactive); in the experiment on A498, 14.5 µM (inactive); with CAKI-1 it was 13.2 µM (inactive); in the experiment on ACHN it was 43.7 µM (inactive). In addition, the figures for the GI50 in the experiment on M14 and with A549 were 51.6 µM (inactive) and 53.1 µM (inactive), respectively.
As to `Oc1c(CN2CCN(c3ccccc3)CC2)cc(Br)c2cccnc12`, the GI50 is 3.97 µM (inactive) in the experiment on SK-MEL-28; 1.63 µM (inactive) in the experiment on DU-145; 0.284 µM (active) in the experiment with SR; 2.2 µM (inactive) in the experiment on HOP-92; 3.21 µM (inactive) in the experiment with SK-OV-3; 2.17 µM (inactive) in the experiment with SK-MEL-2. The GI50 in the experiment on UO-31 was 0.393 µM (active); in the experiment on OVCAR-3, 0.423 µM (active); in the experiment with SF-268, 0.893 µM (active); in the experiment on HOP-62, 1.33 µM (inactive); in the experiment on SK-MEL-5 it was 0.805 µM (active); in the experiment on MDA-N, 0.855 µM (active). In addition, the GI50 in the experiment with LOX IMVI was 0.52 µM (active); with CCRF-CEM it was 0.271 µM (active); in the experiment with Malme-3M, 0.995 µM (active); with A498, 7.46 µM (inactive); in the experiment on CAKI-1 it was 1.21 µM (inactive); with ACHN, 0.621 µM (active). The GI50 was 1.14 µM (inactive) with M14 and 1.43 µM (inactive) in the experiment on A549.
Take `Clc1ccccc1C(Nc1cnccn1)Nc1cnccn1`: the GI50 in the experiment with SK-MEL-28 is > 100 µM (inactive); in the experiment with DU-145 it was > 100 µM (inactive); in the experiment on SR it was 0.07 µM (active); with HOP-92, > 100 µM (inactive); in the experiment with SK-OV-3 it was > 100 µM (inactive); in the experiment on SK-MEL-2, > 100 µM (inactive). In addition, the GI50 was > 100 µM (inactive) in the experiment with UO-31; > 100 µM (inactive) with OVCAR-3; > 100 µM (inactive) with SF-268; > 100 µM (inactive) in the experiment with HOP-62; > 100 µM (inactive) with SK-MEL-5; 23.2 µM (inactive) in the experiment on MDA-N. The GI50 in the experiment on LOX IMVI was > 100 µM (inactive); in the experiment with CCRF-CEM it was 0.675 µM (active); with Malme-3M it was > 100 µM (inactive); in the experiment with A498, > 100 µM (inactive); with CAKI-1 it was > 100 µM (inactive); with ACHN, > 100 µM (inactive). The GI50 in the experiment with M14 was 5.85 µM (inactive); in the experiment with A549, > 100 µM (inactive).

These data come from ChEMBL document CHEMBL1201862, “PubChem BioAssay data set” (2004).
